Blank lines part the entries; values can stand above or below the molecule they belong to.
How the values were obtained:
[1] = target: Lysine decarboxylase from Selenomonas ruminantium (Selenomonas ruminantium); assay: crystal structure; three crystal forms: apo I (P43212, one molecule per asymmetric unit, dimer generated by crystallographic symmetry), apo II (C2, a dimer in the asymmetric unit), PLP/cadaverine complex (P6322, one molecule per asymmetric unit); hanging-drop vapor diffusion at 20°C; protein in 40 mM Tris-HCl, pH 8.0
[2] = target: T1, SrLDC (lysine decarboxylase from Selenomonas ruminantium) (Pseudoselenomonas ruminantium, UniProt O50657); assay: isothermal titration calorimetry, independent binding model
T1 construct: gene ldc; residues 1-399 as printed (count probably includes the C-terminal 6xHis; sheet domain ends at Val393); pET-22b(+), C-terminal 6xHis kept; E. coli BL21(DE3)-T1R
T1 sequence (O50657 whole entry, the tested form may be a part): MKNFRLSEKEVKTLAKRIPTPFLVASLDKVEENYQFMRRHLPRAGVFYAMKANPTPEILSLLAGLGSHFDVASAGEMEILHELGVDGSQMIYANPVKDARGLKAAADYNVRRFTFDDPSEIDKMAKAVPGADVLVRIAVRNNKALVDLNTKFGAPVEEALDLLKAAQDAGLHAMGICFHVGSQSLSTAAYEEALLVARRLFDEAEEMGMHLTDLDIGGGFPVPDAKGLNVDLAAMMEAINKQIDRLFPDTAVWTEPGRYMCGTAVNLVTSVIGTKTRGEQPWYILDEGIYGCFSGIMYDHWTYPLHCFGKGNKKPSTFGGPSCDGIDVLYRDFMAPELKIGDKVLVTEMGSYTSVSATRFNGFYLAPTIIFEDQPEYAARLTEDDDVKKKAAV

[3] = target: T1, SrLDC (lysine decarboxylase from Selenomonas ruminantium); assay: X-ray crystal structure, […] Å; assay type: binding; conditions: PLP-complexed crystal soaked with 10 mM L-lysine for 30 min; cadaverine observed instead; pH 4.2; active site at dimer interface

stoichiometry N [1]: 2
Molecule: Lysine decarboxylase from Selenomonas ruminantium (enzyme)

Kd [2]: 72 µM
Molecule: Cc1ncc(COP(=O)(O)O)c(C=O)c1O [PLP]

Molecule: NCCCCCN [cadaverine]
X-ray crystal structure, 2.5 Å [3]: soaked the crystals of SrLDC complexed with PLP in L-lysine, a cadaverine molecule was observed
